Laboratory results taken from ChEMBL document CHEMBL3045404, “Structure-Activity Relationships of 2-Chloropyridine-3-carboxamide Fungicides” (J Pestic Sci, 1992).

Experiments:
[1] = test system: Botrytis cinerea; assay: Antifungal activity against Botryotinia fuckeliana infested in cucumber seedling cotyledons after 4 days by pot test; type: functional
[2] = test system: Rhizoctonia solani; assay: Antifungal activity against Rhizoctonia solani infested in rice seedling incubated for 40 hr in moist chamber followed by incubation for 3 days in greenhouse conditions; type: functional, organism-based

| SMILES | pEC90 [1] | EC50 [2] |
| --- | --- | --- |
| CC1CC(C)(C)c2cccc(NC(=O)c3cccnc3Cl)c21 (stereo unspecified) | 4.7 | 7.76 µM |
| O=C(Nc1ccccc1-c1ccccc1)c1cccnc1Cl | 2.8 | > 6310 µM |
| O=C(Nc1cccc2c1CCC2)c1cccnc1Cl | 2.68 | 692 µM |
| O=C(Nc1ccccc1)c1cccnc1Cl | 2.2 | 1000 µM |
| CCc1cccc(NC(=O)c2cccnc2Cl)c1 | <2.2 | 158 µM |
| CCOc1cccc(NC(=O)c2cccnc2Cl)c1 | <2.2 | 85.1 µM |
| CC(C)Oc1cccc(NC(=O)c2cccnc2Cl)c1 | <2.2 | 57.5 µM |
| CCc1ccccc1NC(=O)c1cccnc1Cl | 2.57 | 2000 µM |
| CC(C)c1ccccc1NC(=O)c1cccnc1Cl | 3.19 | 1510 µM |
| CCOc1ccccc1NC(=O)c1cccnc1Cl | 2.48 | 1100 µM |
| C=C(C)c1ccccc1NC(=O)c1cccnc1Cl | 3.78 | 1170 µM |
| CCOc1c(NC(=O)c2cccnc2Cl)cccc1C(C)C | 3.32 | 112 µM |
| CCc1c(C)cccc1NC(=O)c1cccnc1Cl | 2.96 | 724 µM |
| CC1CCc2cccc(NC(=O)c3cccnc3Cl)c21 (stereo unspecified) | 4.15 | 631 µM |
| CC1Cc2cccc(NC(=O)c3cccnc3Cl)c2C1 (stereo unspecified) | 3.11 | 692 µM |
| CC1CCc2c(NC(=O)c3cccnc3Cl)cccc21 (stereo unspecified) | 3.03 | 52.5 µM |
| CC1(C)CCc2c(NC(=O)c3cccnc3Cl)cccc21 | 2.97 | 28.8 µM |

| SMILES | pEC90 [1] | EC50 [2] |
| --- | --- | --- |
| CCC1CC(C)(C)c2cccc(NC(=O)c3cccnc3Cl)c21 (stereo unspecified) | 4.75 | 7.24 µM |
| CCC1CC(C)(CC)c2cccc(NC(=O)c3cccnc3Cl)c21 (stereo unspecified) | 4.58 | 33.9 µM |
| CC1SCc2cccc(NC(=O)c3cccnc3Cl)c21 (stereo unspecified) | 2.93 | 933 µM |
| CC1OCc2cccc(NC(=O)c3cccnc3Cl)c21 (stereo unspecified) | 2.93 | 525 µM |
| CC1OC(C)(C)c2cccc(NC(=O)c3cccnc3Cl)c21 (stereo unspecified) | 3.93 | 14.1 µM |
| CCC1OC(C)(C)c2cccc(NC(=O)c3cccnc3Cl)c21 (stereo unspecified) | 3.55 | 12.3 µM |
| O=C(Nc1cccc2c1OCC2)c1cccnc1Cl | <2.2 | 1620 µM |
| CC1(C)Cc2cccc(NC(=O)c3cccnc3Cl)c2O1 | 3.84 | 214 µM |
| CCCCC1(CC)Cc2cccc(NC(=O)c3cccnc3Cl)c2O1 (stereo unspecified) | 3.04 | 1550 µM |
| Cc1oc2cccc(NC(=O)c3cccnc3Cl)c2c1C | <2.2 | 603 µM |
| CC1Oc2cccc(NC(=O)c3cccnc3Cl)c2C1C (stereo unspecified) | <2.2 | 631 µM |
| CC1(C)Oc2cccc(NC(=O)c3cccnc3Cl)c2O1 | 2.76 | 759 µM |
| CC1(C)CCc2cccc(NC(=O)c3cccnc3Cl)c2O1 | 3.66 | 1450 µM |
| CCC1(CC)CCc2cccc(NC(=O)c3cccnc3Cl)c2O1 | 4.41 | 1150 µM |
| CC1(C)OCc2cccc(NC(=O)c3cccnc3Cl)c2O1 | 3.29 | 1450 µM |
| CCC1(C)Oc2c(NC(=O)c3cccnc3Cl)cccc2C(C)O1 (stereo unspecified) | 3.57 | 13.2 µM |
